Laboratory results reported in patent US20070117836A1, “NAPTHALIMIDE DERIVATIVES, METHODS FOR THEIR PRODUCTION AND PHARMACEUTICAL COMPOSITIONS THEREFROM” (priority 2004, published 2007).
Read-outs that look alike come from different tables or passages of the source.

Legend:
[1] = system: Six human cancer cell lines (Hs683, U-373MG, HCT-15, LoVo, A549, MCF-7); assay: MTT test of overall cell growth; type: cell-based
Method: In order to characterize the in vitro activity of the compounds of the invention, MTT tests were performed to indirectly and rapidly measure, i.e. within 5 days, the effect of such a compound on the overall cell growth. The test measures the number of metabolically active living cells that are able to transform the yellow product 3-(4,5-dimethylthiazol-2-yl)-2,5-diphenyl tetrazolium bromide (herein referred as MTT) into the blue product formazan dye by mitochondrial reduction. The amount of formazan obtained at the end of the experiment was measured by means of a spectrophotometer and is directly proportional to the number of living cells. Determination of the optical density enables a quantitative measurement of the effect of the investigated compounds as compared to the control condition (untreated cells) and/or to other reference compounds (in casu mitonafide and amonafide).
Six human cancer cell lines described in table 1 were used in the MTT tests. These cell lines cover four histological cancer types, being glioma, colon, lung and breast cancers. Cells were allowed to grow in 96-well micro-wells with a flat bottom with an amount of 100 μl of cell suspension per well with 1,000 to 4,000 cells/well depending on the cell type used. Each cell line was seeded in an MEM 5% serum culture medium.
The detailed experimental procedure was as follows: after a 24-hour period of incubation at 37° C., the culture medium was replaced by 100 μl of fresh medium in which the compound to be tested was dissolved at the following molar concentrations: 10^−9 M, 5.10^−9 M, 10^−8 M, 5.10^−8 M, 10^−7 M, 5.10^−7 M, 10^−6 M, 5.10^−6 M and 10^−5 M. Each experiment was repeated 6 times.
After 72 hours of incubation at 37° C. with (experimental conditions) or without (control condition) the compound to be tested, the medium was replaced by 100 μl MTT dissolved in RPMI at a concentration of 1 mg/ml. The micro-wells were subsequently incubated during 3 hours at 37° C. and centrifuged at 400 g during 10 minutes. MTT was removed and formazan crystals formed were dissolved in 100 μl DMSO. The micro-wells were shaken for 5 minutes and read on a spectrophotometer at wavelengths of 570 nm (maximum formazan absorbance) and 630 nm (background noise).
For each experimental condition, the mean optical density was calculated, as well as the percentage of remaining living cells in comparison with the control.

in vivo = settings: mouse
Method: The maximum tolerated dose (herein after MTD) is defined as the maximum amount of a given drug which can be administered acutely (i.e. in one intraperitoneal, intravenous, subcutaneous or oral single dose) to healthy animals, i.e. animals not grafted with tumors. The survival times and weights of the animals are recorded up to 14 days post injection. Five different doses of each drug are used for the determination of the MTD index. […] Each experimental group comprised 3 mice for the determination of the MTD index (expressed in mg/kg).

[2] = Homo sapiens, 72 h, range of molar concentrations giving 50% inhibition of overall tumor cells growth, MTT, 72 hours incubation, six human cancer cell lines, read-out: IC50
[3] = range of molar concentrations giving 50% inhibition of overall tumor cells growth, MTT, 72 hours incubation, six human cancer cell lines, hydrochloride, read-out: IC50
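Throughout, for MTD: highest single acute dose (intraperitoneal, intravenous, subcutaneous or oral) tolerated by tumor-free mice, assessed across five dose levels per drug.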

| SMILES | IC50 [1, 2] [µM] | MTD at 14 days (in vivo) [mg/kg] | further results |
| --- | --- | --- | --- |
| CN(C)CCN1C(=O)c2cccc3cc(NC(=O)CCCCl)cc(c23)C1=O [Example 12, 4-chloro-N-{2-[2-(dimethylamino)ethyl]-1,3-dioxo-2,3-dihydro-1H-benzo[de]isoquinolin-5-yl}butanamide] | > 10 |  |  |
| CCOC(=O)CCC(=O)Nc1cc2c3c(cccc3c1)C(=O)N(CCN(C)C)C2=O [Example 11] | > 10 |  | MTD at 14 days (in vivo; intraperitoneal): > 160 mg/kg |
| CN(C)CCN1C(=O)c2cccc3cc(NCc4ccc5c(c4)OCO5)cc(c23)C1=O [Example 36, 5-{[1,3-benzodioxol-5-ylmethyl]amino}-N-(2-[2-dimethylamino)ethyl]-1H-benzo[de]isoquinolin-1,3(2H)-dione] | 5 to 10 | > 80 |  |
| CN(C)CCN1C(=O)c2cccc3cc(NCc4cc5c(cc4[N+](=O)[O-])OCO5)cc(c23)C1=O.Cl [Example 41, 5-{[(benzo([1,3]dioxol-6-nitro)-5-ylmethyl]amino}-N-(2-[2-dimethylamino)ethyl]-1H-benzo[de]isoquinolin-1,3(2H)-dione hydrochloride] |  |  | IC50 [1, 3]: 5 to 10 µM |
| COc1ccc(CC(=O)Nc2cc3c4c(cccc4c2)C(=O)N(CCN(C)C)C3=O)cc1 [Example 15, 2-(4-methoxyphenyl)-N-{2-[2-(dimethyl-amino)ethyl]-1,3-dioxo-2,3-dihydro-1H-benzo[de]isoquinolin-5-yl}acetamide] | 1 to 5 |  |  |
| CN(C)CCN1C(=O)c2cccc3cc(NCc4ccccc4OC4OC(CO)C(O)C(O)C4O)cc(c23)C1=O.Cl (stereo not drawn) [Example 39] |  | > 80 |  |
| CCOC(=O)NC(=O)Nc1cc2c3c(cccc3c1)C(=O)N(CCN(C)C)C2=O [Example 4, ethyl({2-[2-(dimethylamino)ethyl]-1.3-dioxo-2,3-dihydro-1H-benzo[de]isoquinolin-5-yl}amino)carbonylcarbamate] | 1 to 5 | 80 |  |
| CN(C)CCN1C(=O)c2cccc3cc(NC(=O)C(F)(F)F)cc(c23)C1=O [Example 29, 2,2,2-trifluoro-N-{2-[2-(dimethylamino)ethyl]-1,3-dioxo-2,3-dihydro-1H-benzo[de]isoquinolin-5-yl}acetamide] | 5 to 10 |  |  |
| CN(C)CCN1C(=O)c2cccc3cc(NC(=O)Nc4ccc(Cl)cc4)cc(c23)C1=O [Example 6, N-[2-[2-(dimethylamino)ethyl]-1,3-dioxo-2,3-dihydro-1H-benzo[de]isoquinolin-5-yl]-N′-(4-chlorophenyl)urea] | 1 to 5 |  | MTD at 14 days (in vivo; intraperitoneal): > 160 mg/kg |
| CN(C)CCN1C(=O)c2cccc3cc(NC(=S)NCc4ccc5c(c4)OCO5)cc(c23)C1=O [Example 22] | > 10 | > 80 |  |
| CN(C)CCN1C(=O)c2cccc3cc(NCc4cc5c(cc4[N+](=O)[O-])OCO5)cc(c23)C1=O [Example 40] | > 10 | > 80 |  |
| CN(C)CCN1C(=O)c2cccc3cc(NCc4ccccc4OC4OC(CO)C(O)C(O)C4O)cc(c23)C1=O (stereo not drawn) [Example 37] | 5 to 10 | > 80 |  |
| CN(C)CCN1C(=O)c2cccc3cc(NC(=O)NC(=O)c4ccccc4)cc(c23)C1=O [Example 3, N-[({2-[2-(dimethylamino)ethyl]-1.3-dioxo-2,3-dihydro-1H-benzo[de]isoquinolin-5-yl}amino)carbonyl]benzamide] | 1 to 5 |  | MTD at 14 days (in vivo; intraperitoneal): 80 mg/kg |
| COc1ccc(NC(=O)Nc2cc3c4c(cccc4c2)C(=O)N(CCN(C)C)C3=O)cc1 [Example 30] | 1 to 5 |  |  |
| CCOC(=O)CC(=O)Nc1cc2c3c(cccc3c1)C(=O)N(CCN(C)C)C2=O [Example 14, ethyl 3-({2-[2-(dimethylamino)ethyl]-1,3-dioxo-2,3-dihydro-1H-benzo[de]isoquinolin-5-yl}amino)-3-oxopropanoate] | > 10 |  |  |
| CN(C)CCN1C(=O)c2cccc3cc(NC(=O)Cc4ccc(Cl)cc4)cc(c23)C1=O [Example 13, 2-(4-chlorophenyl)-N-{2-[2-(dimethylamino)ethyl]-1,3-dioxo-2,3-dihydro-1H-benzo[de]isoquinolin-5-yl}acetamide] | 5 to 10 |  |  |

| SMILES | IC50 [1, 2] [µM] | MTD at 14 days (in vivo) [mg/kg] | further results |
| --- | --- | --- | --- |
| CN(C)CCN1C(=O)c2cccc3cc(NCc4ccc5c(c4)OCO5)cc(c23)C1=O.Cl [Example 38, 5-{[1,3-benzodioxol-5-ylmethy]amino}-N-(2-[2-dimethylamino)ethyl]-1H-benzo[de]isoquinolin-1,3(2H)-dione hydrochloride] |  | > 80 |  |
| CN(C)CCN1C(=O)c2cccc3cc(NC(=O)c4ccccc4)cc(c23)C1=O [Example 32, 2-[2-(dimethylamino)ethyl]-1,3-dioxo-2,3-dihydro-1H-benzo[de]isoquinolin-5-ylbenzamide] | > 10 |  |  |
| COc1ccc(OC(=O)Nc2cc3c4c(cccc4c2)C(=O)N(CCN(C)C)C3=O)cc1 [Example 31] |  |  | IC50 ([1]; Homo sapiens, 72 h): 10 µM |
| CN(C)CCN1C(=O)c2cccc3cc(NC(=O)C(Cl)(Cl)Cl)cc(c23)C1=O [Example 16, 2,2,2-trichloro-N-{2-[2-(dimethylamino)ethyl]-1,3-dioxo-2,3-dihydro-1H-benzo[de]isoquinolin-5-yl}acetamide] | > 10 | > 80 |  |
| CN(C)CCN1C(=O)c2cccc3cc(/N=C\c4cc(O)ccc4O)cc(c23)C1=O.Cl [Example 34, 2-[2-dimethylamino)ethyl]-5-{[(1Z)-(2,5-dihydroxyphenyl)methylene]amino}-1H-benzo[de]isoquinolin-1,3(2H)-dione hydrochloride] |  |  | IC50 ([1]; read-out: IC50): 1 to 5 µM |
| CN(C)CCN1C(=O)c2cccc3cc(NC(=S)Nc4ccc(OC(F)(F)F)cc4)cc(c23)C1=O [Example 21] | 1 to 5 |  |  |
| COc1cc(C=Nc2cc3c4c(cccc4c2)C(=O)N(CCN(C)C)C3=O)ccc1O [Example 18, 5-{[(1Z)-(4-hydroxy-3-methoxyphenyl)methylene]amino}-2-[2-(dimethylamino)ethyl]l-1H-benzo[de]isoquinoline-1,3(2H)-dione] | > 10 | > 80 |  |
| COc1cc(/C=N\c2cc3c4c(cccc4c2)C(=O)N(CCN(C)C)C3=O)cc(OC)c1OC [Example 20, 2-[2-(dimethylamino)ethyl]-5-{[(1Z)-(3,4,5-trimethoxyphenyl)methylene]amino}-1H-benzo[de]isoquinoline-1,3(2H)-dione] | 5 to 10 | > 80 |  |
| CN(C)CCN1C(=O)c2cccc3cc(NCc4ccc5c(c4)OCCO5)cc(c23)C1=O [Example 42] | 5 to 10 | > 80 |  |
| CN(C)CCN1C(=O)c2cccc3cc(NCc4ccccc4OC4OC(CO)C(O)C(O)C4O)cc(c23)C1=O.Cl (stereo not drawn) [Example 39, 5-{[2-(2-phenoxy-)-6-hydroxymethyltetrahydro-pyran-3,4,5-triol)-5-ylmethyl]amino}-N-(2-[2-dimethylamino)ethyl]-1H-benzo [de]isoquinolin-1,3(2H)-dione hydrochloride] |  |  | IC50 [1, 3]: > 10 µM |
| CN(C)CCN1C(=O)c2cccc3cc(NC(=S)Nc4ccc(Cl)cc4)cc(c23)C1=O [Example 26, N-[2-[2-(dimethylamino)ethyl]-1,3-dioxo-2,3-dihydro-1H-benzo[de]isoquinolin-5-yl]-N′-(4-chlorophenyl)thiourea] | > 10 | > 80 |  |
| CN(C)CCN1C(=O)c2cccc3cc(N=Cc4ccc(C#N)cc4)cc(c23)C1=O [Example 28, 2-[2-dimethylamino)ethyl]-5-{[(1Z)-(4-cyano-phenyl)-5-ylmethylene]amino}-1H-benzo[de]isoquinolin-1,3(2H)-dione] | 5 to 10 | > 80 |  |
| CN(C)CCN1C(=O)c2cccc3cc(NC(=O)NC(=O)CCl)cc(c23)C1=O [Example 1, 2-chloro-N-[({2-[2-(dimethylamino)ethyl]-1,3-dioxo-2,3-dihydro-1H-benzo[de]isoquinolin-5-yl}amino)carbonyl]acetamide] | 1 to 5 |  |  |
| CN(C)CCN1C(=O)c2cccc3cc(NC(=S)Nc4ccc(C#N)cc4)cc(c23)C1=O [Example 27, N-[2-[2-(dimethylamino)ethyl]-1,3-dioxo-2,3-dihydro-1H-benzo[de]isoquinolin-5-yl]-N′-(4-cyanophenyl)thiourea] | > 10 | > 80 |  |
| CCOC(=O)c1ccc(NC(=O)Nc2cc3c4c(cccc4c2)C(=O)N(CCN(C)C)C3=O)cc1 [Example 8] | 1 to 5 |  | MTD at 14 days (in vivo; intraperitoneal): > 160 mg/kg |
| CN(C)CCN1C(=O)c2cccc3cc(NCc4cc5c(cc4[N+](=O)[O-])OCO5)cc(c23)C1=O.Cl [Example 41] |  | > 80 |  |
